Data as given in patent US5684032A, “Compounds” (SmithKline Beecham Corporation, priority 1995, dated 1997).

What was measured:
[1] = tested on: recombinant human IL-8 type α receptor (IL-8Rα, Type I, non-permissive receptor); test: [125I] IL-8 receptor binding assay, IL-8Rα (Type I, non-permissive) CHO membranes; settings: IL-8Rα (type I) receptor binding assay
Source text: (§1) [^125 I] IL-8 (human recombinant) was obtained from Amersham Corp., Arlington Heights, Ill., with specific activity 2000 Ci/mmol. All other chemicals were of analytical grade. High levels of recombinant human IL-8 type α and β receptors were individually expressed in Chinese hamster ovary cells as described previously (Holmes, et al., Science, 1991, 253, 1278). The Chinese hamster ovary membranes were homogenized according to a previously described protocol (Kraft, et al., Nature, 1983, 301, 621). Membrane protein concentration was determined using Pierce Co. micro-assay kit using bovine serum albumin as a standard. All assays were performed in a 96-well micro plate format. Each reaction mixture contained ^125 I IL-8 (0.25 nM), 0.5 μg/mL of IL-8Rα or 1.0 μg/mL of IL-8Rβ membranes in 20 mM Bis-Trispropane and 0.4 mM Tris HCl buffers, pH 8.0, containing 1.2 mM MgSO4, 0.1 mM EDTA, 25 mM NaCl and 0.03% CHAPS plus peptide at relevant concentrations. The assay was initiated by addition of ^125 I-IL-8. After 1 hour at room temperature the plate was harvested using a Tomtec 96-well harvester onto a glass fiber filtermat blocked with 1% polyethyleneimine/0.5% BSA and washed 3 times with 25 mM NaCl, 10 mM TrisHCl, 1 mM MgSO4, 0.5 mM EDTA, 0.03% CHAPS, pH 7.4. The filter was then dried and counted on the Betaplate liquid scintillation counter. […]

[2] = tested on: recombinant human IL-8 type β receptor (IL-8Rβ, Type II, permissive receptor); test: [125I] IL-8 receptor binding assay, IL-8Rβ (Type II, permissive) CHO membranes; settings: IL-8Rβ (type II) receptor binding assay
Source text: as §1

inhibition of IL-8 binding, result in words [1]: not active
inhibition of IL-8 binding, result in words [2]: not active
SMILES: O=C(O)c1c(-c2ccccc2)c2ccccc2n1Cc1ccc(OC(F)(F)F)cc1
